Experiment [1] has as its target T1, human CYP11B1 (Homo sapiens, UniProt P15538).
T1 construct: The expression plasmids contains the ORF for either human/cyno CYP11B1 or CYP11B2; expressed in transfected cells
T1 sequence (P15538 25-503): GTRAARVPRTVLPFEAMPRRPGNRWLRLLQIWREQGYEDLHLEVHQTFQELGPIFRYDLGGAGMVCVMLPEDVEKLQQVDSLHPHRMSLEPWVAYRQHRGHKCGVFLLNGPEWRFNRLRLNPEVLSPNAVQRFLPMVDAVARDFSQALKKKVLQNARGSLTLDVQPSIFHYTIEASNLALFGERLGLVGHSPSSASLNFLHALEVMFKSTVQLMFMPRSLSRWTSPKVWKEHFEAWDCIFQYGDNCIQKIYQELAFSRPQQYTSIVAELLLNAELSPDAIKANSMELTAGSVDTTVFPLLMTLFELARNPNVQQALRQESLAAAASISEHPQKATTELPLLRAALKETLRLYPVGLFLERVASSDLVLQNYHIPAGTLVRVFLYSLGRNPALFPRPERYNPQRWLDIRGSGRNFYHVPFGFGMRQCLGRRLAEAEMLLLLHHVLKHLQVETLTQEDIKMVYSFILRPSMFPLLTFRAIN
In words: G-402 cellular enzyme assay, human CYP11B1 (cortisol release, HTRF). The experiment is classed as cell-based. The conditions noted are these: G-402 cells expressing human CYP11B1; 1 μM Deoxycortisol. From the text:
(§1) Herein we identified the use of the G-402 cell line as a host cell to ectopically express (transiently or stably) enzymes of the CYP11 family. Specifically we developed stable G-402 cells expressing ectopically human CYP11B1, human CYP11B2, human CYP11A1, cynmolgus CYP11B1 or cynomolgus CYP11B2 enzyme activity. Importantly the identified cell line G-402 expresses co-factors (adrenodoxin and adrenodoxin reductase) important for the activity of the CYP11 family and no relevant enzyme activity of the CYP11 family (in comparison to H295R cells) was detected in these cells. Therefore the G-402 cell line is uniquely suited as a host cell for the ectopic expression of enzymes from the CYP11 family. G-402 cells can be obtained from ATCC (CRL-1440) and were originally derived from a renal leiomyoblastoma.
(§2) The expression plasmids contains the ORF for either human/cyno CYP11B1 or CYP11B2 under the control of a suitable promoter (CMV-promoter) and a suitable resistance marker (neomycin). Using standard techniques the expression plasmid is transfected into G-402 cells and these cells are then selected for expressing the given resistance markers. Individual cell-clones are then selected and assessed for displaying the desired enzymatic activity using 11-Deoxycorticosterone (Cyp11B2) or 11-Deoxycortisol (Cyp11B) as a substrate.
(§3) G-402 cells expressing CYP11 constructs were established as described above and maintained in McCoy's 5a Medium Modified, ATCC Catalog No. 30-2007 containing 10% FCS and 400 μg/ml G418 (Geneticin) at 37° C. under an atmosphere of 5% CO2/95% air. Cellular enzyme assays were performed in DMEM/F12 medium containing 2.5% charcoal treated FCS and appropriate concentration of substrate (0.3-10 uM 11-Deoxycorticosterone, 11-Deoxycortisol or Corticosterone). For assaying enzymatic activity, cells were plated onto 96 well plates and incubated for 16 h. An aliquot of the supernatant is then transferred and analyzed for the concentration of the expected product (Aldosterone for CYP11B2; Cortisol for CYP11B1). The concentrations of these steroids can be determined using HTRF assays from CisBio analyzing either Aldosterone or Cortisol.
(§4) Inhibition of the release of produced steroids can be used as a measure of the respective enzyme inhibition by test compounds added during the cellular enzyme assay. The dose dependent inhibition of enzymatic activity by a compound is calculated by means of plotting added inhibitor concentrations (x-axes) vs. measured steroid/product level (y-axes). The inhibition is then calculated by fitting the following 4-parameter sigmoidal function (Morgan-Mercer-Flodin (MMF) model) to the raw data points using the least squares method:
(§5) [formula] wherein, A is the maximum y value, B is the EC50 factor determined using XLFit, C is the minimum y value and D is the slope value.
(§6) EC50 values for compounds claimed herein were tested with the G402-based assay system described. Cyp11B2 enzyme activity was tested in presence of 1 μM Deoxycorticosterone and variable amounts of inhibitors; Cyp11B1 enzyme activity was tested in presence of 1 μM Deoxycortisol and variable amounts of inhibitors.
In general terms: TR-FRET usually uses a lanthanide donor and a delayed reading to cut background.

Experiment [2] concerns the target T2, human CYP11B2 (Homo sapiens, UniProt P19099).
T2 construct: The expression plasmids contains the ORF for either human/cyno CYP11B1 or CYP11B2; expressed in transfected cells
T2 sequence (P19099 25-503): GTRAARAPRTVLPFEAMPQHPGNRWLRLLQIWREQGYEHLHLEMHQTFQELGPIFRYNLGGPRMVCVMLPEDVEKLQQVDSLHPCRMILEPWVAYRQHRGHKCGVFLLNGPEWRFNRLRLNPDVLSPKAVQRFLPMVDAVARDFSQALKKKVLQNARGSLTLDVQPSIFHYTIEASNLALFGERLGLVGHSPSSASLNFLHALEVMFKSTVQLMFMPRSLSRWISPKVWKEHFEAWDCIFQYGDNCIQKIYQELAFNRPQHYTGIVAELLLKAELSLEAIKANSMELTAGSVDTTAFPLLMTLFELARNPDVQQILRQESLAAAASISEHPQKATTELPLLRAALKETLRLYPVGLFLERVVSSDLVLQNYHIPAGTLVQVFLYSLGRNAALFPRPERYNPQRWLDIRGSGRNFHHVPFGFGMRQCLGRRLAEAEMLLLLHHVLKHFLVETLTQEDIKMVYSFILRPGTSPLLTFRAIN
In words: G-402 cellular enzyme assay, human CYP11B2 (aldosterone release, HTRF). Particulars: G-402 cells expressing human CYP11B2; 1 μM Deoxycorticosterone. It is filed as cell-based.
Excerpt: as §1, §2, §3, §4, §5, §6

For the compound `CCS(=O)(=O)N1CCC(c2cncc(N3C(=O)c4ccc(Cl)cc4[C@H]3C)c2)CC1` (single isomer, unassigned) [Example 24, (+)-(3R or 3S)-5-chloro-2-[5-(1-ethylsulfonylpiperidin-4-yl)pyridin-3-yl]-3-methyl-3H-isoindol-1-one], the EC50 in experiment [1] came out at 433 nM; in experiment [2] it was 2 nM.
The matching figures for `CCS(=O)(=O)N1CCC(c2cncc(N3C(=O)c4ccc(Cl)cc4[C@@H]3C)c2)CC1` (single isomer, unassigned) [Example 25, (−)-(3S or 3R)-5-chloro-2-[5-(1-ethylsulfonylpiperidin-4-yl)pyridin-3-yl]-3-methyl-3H-isoindol-1-one]: 107 nM and 2 nM.
The matching figures for `CC(C)S(=O)(=O)N1CCC(c2cncc(N3C(=O)c4ccc(Cl)cc4[C@H]3C)c2)CC1` (single isomer, unassigned) [Example 26, (+)-(3R or 3S)-5-chloro-3-methyl-2-[5-(1-propan-2-ylsulfonylpiperidin-4-yl)pyridin-3-yl]-3H-isoindol-1-one]: 1620 nM and 11 nM.
Taken in the same sequence, the figures for `CC(C)S(=O)(=O)N1CCC(c2cncc(N3C(=O)c4ccc(Cl)cc4[C@@H]3C)c2)CC1` (single isomer, unassigned) [Example 27, (−)-(3S or 3R)-5-chloro-3-methyl-2-[5-(1-propan-2-ylsulfonylpiperidin-4-yl)pyridin-3-yl]-3H-isoindol-1-one] were 523 nM and 1 nM.
Regarding `Cc1ccncc1C(=O)N1CCC(c2cncc(N3C(=O)c4ccc(Cl)cc4[C@H]3C)c2)CC1` (single isomer, unassigned) [Example 28, (+)-(3R or 3S)-5-chloro-3-methyl-2-[5-[1-(4-methylpyridine-3-carbonyl)piperidin-4-yl]pyridin-3-yl]-3H-isoindol-1-one], the values for the EC50 in experiment [1] and in experiment [2] were 167 nM and 4 nM, respectively.
The matching figures for `Cc1ccncc1C(=O)N1CCC(c2cncc(N3C(=O)c4ccc(Cl)cc4[C@@H]3C)c2)CC1` (single isomer, unassigned) [Example 29, (−)-(3S or 3R)-5-chloro-3-methyl-2-[5-[1-(4-methylpyridine-3-carbonyl)piperidin-4-yl]pyridin-3-yl]-3H-isoindol-1-one]: 117 nM and 9 nM.
Taken in the same sequence, the figures for `CC1(C)c2cc(Cl)ccc2C(=O)N1c1cncc(C2CCCN(S(C)(=O)=O)C2)c1` (single isomer, unassigned; (+)) [Example 5, (+)-5-chloro-3,3-dimethyl-2-[5-[(3R or 3S)-1-methylsulfonylpiperidin-3-yl]pyridin-3-yl]isoindol-1-one] were 213 nM and 5 nM.
For `CCCS(=O)(=O)N1CCC(c2cncc(N3C(=O)c4ccc(Cl)cc4C3(C)C)c2)C1` (single isomer, unassigned; (+)) [Example 8, (+)-5-chloro-3,3-dimethyl-2-[5-[(3R or 3S)-1-propylsulfonylpyrrolidin-3-yl]pyridin-3-yl]isoindol-1-one], the results for the EC50 in experiment [1] and in experiment [2] were 109 nM and 4 nM, respectively.
In the case of `CC(C)S(=O)(=O)N1CCC(c2cncc(N3C(=O)c4ccc(Cl)cc4C3(C)C)c2)C1` (single isomer, unassigned; (+)) [Example 10, (+)-5-chloro-3,3-dimethyl-2-[5-[(3R or 3S)-1-propan-2-ylsulfonylpyrrolidin-3-yl]pyridin-3-yl]isoindol-1-one], the concentration for a half-maximal effect (EC50) in experiment [1] stood at 93 nM; in experiment [2], 2 nM.
Taken in the same sequence, the figures for `CC1(C)c2cc(Cl)ccc2C(=O)N1c1cncc(C2CCN(S(=O)(=O)C3CC3)C2)c1` (single isomer, unassigned; (+)) [Example 12, (+)-5-chloro-2-[5-[(3R or 3S)-1-cyclopropylsulfonylpyrrolidin-3-yl]pyridin-3-yl]-3,3-dimethylisoindol-1-one] were 75 nM and 2 nM.
Consider `CC1(C)c2cc(Cl)ccc2C(=O)N1c1cncc(C2CCCN(S(C)(=O)=O)C2)c1` (single isomer, unassigned; (-)) [Example 6, (−)-5-chloro-3,3-dimethyl-2-[5-[(3S or 3R)-1-methylsulfonylpiperidin-3-yl]pyridin-3-yl]isoindol-1-one], for which the figures for the EC50 in experiment [1] and in experiment [2] were 332 nM and 15 nM, respectively.
The matching figures for `CCCS(=O)(=O)N1CCC(c2cncc(N3C(=O)c4ccc(Cl)cc4C3(C)C)c2)C1` (single isomer, unassigned; (-)) [Example 9, (−)-5-chloro-3,3-dimethyl-2-[5-[(3S or 3R)-1-propylsulfonylpyrrolidin-3-yl]pyridin-3-yl]isoindol-1-one]: 800 nM and 14 nM.
Consider `CC(C)S(=O)(=O)N1CCC(c2cncc(N3C(=O)c4ccc(Cl)cc4C3(C)C)c2)C1` (single isomer, unassigned; (-)) [Example 11, (−)-5-chloro-3,3-dimethyl-2-[5-[(3S or 3R)-1-propan-2-ylsulfonylpyrrolidin-3-yl]pyridin-3-yl]isoindol-1-one], for which the EC50 was 601 nM in experiment [1] and 7 nM in experiment [2].
The matching figures for `CC1(C)c2cc(Cl)ccc2C(=O)N1c1cncc(C2CCN(S(=O)(=O)C3CC3)C2)c1` (single isomer, unassigned; (-)) [Example 13, (−)-5-chloro-2-[5-[(3S or 3R)-1-cyclopropylsulfonylpyrrolidin-3-yl]pyridin-3-yl]-3,3-dimethylisoindol-1-one]: 957 nM and 19 nM.
The matching figures for `CCC(=O)N1CCC(c2cncc(N3C(=O)c4ccc(Cl)cc4C3(C)C)c2)CC1` [Example 1, 5-Chloro-3,3-dimethyl-2-[5-(1-propanoylpiperidin-4-yl)pyridin-3-yl]isoindol-1-one]: 238 nM and 5 nM.
On to `CCS(=O)(=O)N1CCC(c2cncc(N3C(=O)c4ccc(Cl)cc4C3(C)C)c2)CC1` [Example 2, 5-Chloro-2-[5-(1-ethylsulfonylpiperidin-4-yl)pyridin-3-yl]-3,3-dimethylisoindol-1-one], for which the EC50 in experiment [1] was determined as 290 nM; in experiment [2] it was 2 nM.
For `CC1(C)c2cc(Cl)ccc2C(=O)N1c1cncc(C2CCN(S(C)(=O)=O)CC2)c1` [Example 3, 5-Chloro-3,3-dimethyl-2-[5-(1-methylsulfonylpiperidin-4-yl)pyridin-3-yl]isoindol-1-one], the values for the EC50 in experiment [1] and in experiment [2] were 53 nM and 2 nM, respectively.

By EC50 is commonly meant the midpoint of the concentration-response curve. A higher EC50 goes with weaker potency.

(Values after patent publication US9505742B2, “3,4-dihydro-2H-isoquinoline-1-one and 2,3-dihydro-isoindol-1-one compounds” (Hoffmann-La Roche Inc., priority 2013, dated 2016).)
